Test [1] addresses KRas G12A (Homo sapiens, UniProt P01116, G12A). Put plainly: biochemical.
Protocol: (§1) The ability of a compound to bind to KRas was measured using a TR-FRET displacement assay. […] After a 60-minute incubation at room temperature, the reaction was measured using a BMG LABTECH CLARIO star Plus via TR-FRET. […] The POC values were fit to a 4-parameter IC50 equation and the IC50 value reported.
Test [2] deals with T1, KRas Q61H (Homo sapiens, UniProt P01116, Q61H).
T1 construct: Biotinylated KRas (corresponding to amino acids 1-169, produced at Accelegan Inc.); biotin (biotinylated); purchased Accelegan Inc
In words: KRas binding assay (TR-FRET displacement).
Protocol: as §1

Test [3] concerns the target KRas G12R (Homo sapiens, UniProt P01116, G12R). In words: biochemical.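 Further: TR-FRET displacement assay of compound binding to KRas, read after one hour at room temperature, potency from a four-parameter fit of percent-of-control values.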
Protocol: as §1
Test [4] concerns the target KRas WT (Homo sapiens, UniProt P01116). In words: biochemical.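 Further: binding to KRas read as TR-FRET displacement after a one-hour room-temperature incubation, IC50 derived from percent-of-control values.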
Protocol: as §1
In test [5] the target is T2, KRas G13D (Homo sapiens, UniProt P01116, G13D).
T2 construct: Biotinylated KRas (corresponding to amino acids 1-169, produced at Accelegan Inc.); biotin (biotinylated); purchased Accelegan Inc
T2 sequence (P01116 1-169 isoform P01116-2 G13D): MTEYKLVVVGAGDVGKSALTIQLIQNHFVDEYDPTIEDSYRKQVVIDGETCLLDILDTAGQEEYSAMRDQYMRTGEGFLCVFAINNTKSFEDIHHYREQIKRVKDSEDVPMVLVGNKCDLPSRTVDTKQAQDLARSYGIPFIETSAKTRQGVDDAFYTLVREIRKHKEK
In words: KRas binding assay (TR-FRET displacement). For orientation: In TR-FRET formats the signal depends on donor and acceptor labels being close together.
Protocol: as §1

Test [6] addresses KRas G12S (Homo sapiens, UniProt P01116, G12S). In words: biochemical.
Protocol: as §1
Test [7] has as its target KRas G12D (Homo sapiens, UniProt P01116, G12D). In words: biochemical.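 Further: TR-FRET displacement binding assay on KRas, read after a one-hour incubation at room temperature, IC50 fitted from percent-of-control values.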
Protocol: as §1
The target in test [8] is KRas G12V (Homo sapiens, UniProt P01116, G12V). In words: biochemical.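 Further: KRas binding measured by TR-FRET displacement at room temperature, IC50 fitted from percent of control values.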
KRas G12V, sequence (P01116 1-169 isoform P01116-2 G12V): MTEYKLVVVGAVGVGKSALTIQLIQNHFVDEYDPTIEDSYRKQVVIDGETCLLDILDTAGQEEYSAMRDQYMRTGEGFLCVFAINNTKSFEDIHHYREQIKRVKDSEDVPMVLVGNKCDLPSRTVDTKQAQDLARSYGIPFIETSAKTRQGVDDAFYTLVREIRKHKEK
Protocol: as §1
The target in test [9] is KRas G12C (Homo sapiens, UniProt P01116, G12C). In words: biochemical.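 Further: binding to KRas assessed by TR-FRET displacement after one hour incubation at room temperature, potency fitted from percent-of-control values.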
KRas G12C, sequence (P01116 1-169 isoform P01116-2 G12C): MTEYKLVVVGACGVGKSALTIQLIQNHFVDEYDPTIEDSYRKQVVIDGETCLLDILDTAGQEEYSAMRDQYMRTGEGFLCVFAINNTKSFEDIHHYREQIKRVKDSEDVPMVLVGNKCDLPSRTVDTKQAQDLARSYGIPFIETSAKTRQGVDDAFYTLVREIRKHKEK
Protocol: as §1

Usually IC50 stands for the concentration at which inhibition is half-maximal. Higher therefore signals a need for much substance.

KRas G12R, sequence (P01116 1-169 isoform P01116-2 G12R): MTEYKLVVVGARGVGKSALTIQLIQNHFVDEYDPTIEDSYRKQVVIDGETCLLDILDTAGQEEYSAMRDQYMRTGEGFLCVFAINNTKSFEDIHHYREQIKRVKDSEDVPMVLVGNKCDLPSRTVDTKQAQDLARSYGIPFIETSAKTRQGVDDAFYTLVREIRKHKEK
KRas WT, sequence (P01116 1-169 isoform P01116-2): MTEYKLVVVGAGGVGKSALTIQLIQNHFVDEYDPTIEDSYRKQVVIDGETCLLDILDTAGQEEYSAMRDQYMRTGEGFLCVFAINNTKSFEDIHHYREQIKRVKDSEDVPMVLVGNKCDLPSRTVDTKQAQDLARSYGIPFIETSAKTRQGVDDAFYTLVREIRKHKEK
KRas G12D, sequence (P01116 1-169 isoform P01116-2 G12D): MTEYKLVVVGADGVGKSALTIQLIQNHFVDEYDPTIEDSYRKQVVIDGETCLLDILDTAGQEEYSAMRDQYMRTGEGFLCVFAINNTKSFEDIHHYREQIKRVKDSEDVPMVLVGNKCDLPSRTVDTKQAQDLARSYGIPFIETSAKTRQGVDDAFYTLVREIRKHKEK
KRas G12S, sequence (P01116 1-169 isoform P01116-2 G12S): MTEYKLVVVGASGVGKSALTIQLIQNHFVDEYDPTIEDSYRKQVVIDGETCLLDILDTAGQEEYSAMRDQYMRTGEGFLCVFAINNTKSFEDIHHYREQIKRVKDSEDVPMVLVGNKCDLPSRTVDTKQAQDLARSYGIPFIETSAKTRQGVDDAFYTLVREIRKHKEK
KRas G12A, sequence (P01116 1-169 isoform P01116-2 G12A): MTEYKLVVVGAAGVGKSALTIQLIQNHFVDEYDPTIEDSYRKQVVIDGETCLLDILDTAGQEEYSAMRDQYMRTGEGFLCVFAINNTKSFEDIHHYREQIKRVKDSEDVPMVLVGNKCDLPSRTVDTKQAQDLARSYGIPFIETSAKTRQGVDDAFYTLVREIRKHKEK
T1 sequence (P01116 1-169 isoform P01116-2 Q61H): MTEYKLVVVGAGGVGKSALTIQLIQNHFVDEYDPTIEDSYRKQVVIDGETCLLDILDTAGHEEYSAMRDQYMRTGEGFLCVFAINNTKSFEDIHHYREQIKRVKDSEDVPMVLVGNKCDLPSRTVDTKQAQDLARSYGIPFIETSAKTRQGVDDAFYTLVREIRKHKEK

As to `Fc1c(-c2cccc3cccc(F)c23)ncc2c(NCc3ccc4nccn4c3)nc(OCC34CCCN3CCC4)nc12` [Example 208, 8-fluoro-7-(8-fluoronaphthalen-1-yl)-N-(imidazo[1,2-a]pyridin-6-ylmethyl)-2-((tetrahydro-1H-pyrrolizin-7a(5H)-yl)methoxy)pyrido[4,3-d]pyrimidin-4-amine], the IC50 in test [1] turned out to be 1.3 µM; in [2], 7150 nM; in test [3] it was 0.494 µM; in test [4], 4.01 µM; in [5], 6250 nM; in [6], 2.26 µM. Also, the concentration for half-maximal inhibition (IC50) in test [7] stood at 17.4 µM; in test [8], 0.824 µM; in test [9] it was 0.677 µM.
As to `N#Cc1cccnc1N1CCN(c2nc(OCC34CCCN3CCC4)nc3c(F)c(-c4cccc5cccc(F)c45)ncc23)CC1` [Example 209, 2-(4-(8-fluoro-7-(8-fluoronaphthalen-1-yl)-2-((tetrahydro-1H-pyrrolizin-7a(5H)-yl)methoxy)pyrido[4,3-d]pyrimidin-4-yl)piperazin-1-yl)nicotinonitrile], the concentration for half-maximal inhibition (IC50) was 3.7 µM in test [1]; 12700 nM in test [2]; 1.61 µM in [3]; 4.96 µM in test [4]; 13300 nM in test [5]; 10.1 µM in test [6]. Also, the results for the 50% inhibitory concentration (IC50) in test [7], in test [8] and in test [9] were 63.4 µM, 2.35 µM and 2.52 µM, respectively.
As to `Fc1c(-c2cccc3cccc(F)c23)ncc2c(Nc3cnn(-c4ccncc4)c3)nc(OCC34CCCN3CCC4)nc12` [Example 210, 8-fluoro-7-(8-fluoronaphthalen-1-yl)-N-(1-(pyridin-4-yl)-1H-pyrazol-4-yl)-2-((tetrahydro-1H-pyrrolizin-7a(5H)-yl)methoxy)pyrido[4,3-d]pyrimidin-4-amine], the IC50 is 66.5 µM in test [1]; at least 100000 nM in test [2]; 37.8 µM in test [3]; at least 100 µM in test [4]; at least 100000 nM in [5]; at least 100 µM in test [6]. Also, the IC50 in [7] is at least 100 µM; in test [8], 2.94 µM; in test [9], 43.3 µM.
For the compound `Fc1c(-c2cccc3cccc(F)c23)ncc2c(NCCNc3cccnc3)nc(OCC34CCCN3CCC4)nc12` [Example 211, N1-(8-fluoro-7-(8-fluoronaphthalen-1-yl)-2-((tetrahydro-1H-pyrrolizin-7a(5H)-yl)methoxy)pyrido[4,3-d]pyrimidin-4-yl)-N2-(pyridin-3-yl)ethane-1,2-diamine], the IC50 in [1] amounted to 12.2 µM; in [2] it was 29800 nM; in [3] it was 8.03 µM; in test [4] it was 16.9 µM; in test [5] it was 20200 nM; in test [6], 18.7 µM. The results for the IC50 in test [7], in [8] and in test [9] were at least 100 µM, 14.7 µM and 10.4 µM, respectively.
With `Fc1c(-c2cccc3cccc(F)c23)ncc2c(NCCc3c[nH]c4ncccc34)nc(OCC34CCCN3CCC4)nc12` [Example 212, N-(2-(1H-pyrrolo[2,3-b]pyridin-3-yl)ethyl)-8-fluoro-7-(8-fluoronaphthalen-1-yl)-2-((tetrahydro-1H-pyrrolizin-7a(5H)-yl)methoxy)pyrido[4,3-d]pyrimidin-4-amine], the IC50 in test [1] came to 2.83 µM; in [2], 17400 nM; in test [3], 0.88 µM; in [4], 8.36 µM; in [5], 10100 nM; in test [6], 6.45 µM. In addition, the IC50 in test [7] was determined as 15.6 µM; in [8] it was 1.35 µM; in test [9], 3.12 µM.
As for `Fc1c(-c2cccc3cccc(F)c23)ncc2c(N3CC(c4ccncc4)C3)nc(OCC34CCCN3CCC4)nc12` [Example 213, 8-fluoro-7-(8-fluoronaphthalen-1-yl)-4-(3-(pyridin-4-yl)azetidin-1-yl)-2-((tetrahydro-1H-pyrrolizin-7a(5H)-yl)methoxy)pyrido[4,3-d]pyrimidine], the concentration for half-maximal inhibition (IC50) in test [1] is 6.19 µM; in test [2], 17700 nM; in test [3] it was 4.25 µM; in [4] it was 16.8 µM; in test [5], 20500 nM; in test [6], 7.25 µM. Further, the IC50 in [7] is at least 100 µM; in [8], 5.57 µM; in test [9], 4.2 µM.
On to `Fc1c(-c2cccc3cccc(F)c23)ncc2c(NCc3cnn4cccnc34)nc(OCC34CCCN3CCC4)nc12` [Example 214, 8-fluoro-7-(8-fluoronaphthalen-1-yl)-N-(pyrazolo[1,5-a]pyrimidin-3-ylmethyl)-2-((tetrahydro-1H-pyrrolizin-7a(5H)-yl)methoxy)pyrido[4,3-d]pyrimidin-4-amine], for which the IC50 in test [1] came to 28.8 µM; in test [2], 81100 nM; in [3] it was 16.4 µM; in test [4], 60 µM; in test [5], 95100 nM; in [6], 34.6 µM. In addition, the IC50 is at least 100 µM in test [7], 12.6 µM in test [8] and 9.59 µM in test [9].
In the case of `Fc1c(-c2cccc3cccc(F)c23)ncc2c(NCCc3ccn[nH]3)nc(OCC34CCCN3CCC4)nc12` [Example 215, N-(2-(1H-pyrazol-5-yl)ethyl)-8-fluoro-7-(8-fluoronaphthalen-1-yl)-2-((tetrahydro-1H-pyrrolizin-7a(5H)-yl)methoxy)pyrido[4,3-d]pyrimidin-4-amine], the IC50 in test [1] was 26.1 µM; in test [2], 57500 nM; in test [3], 8.95 µM; in test [4], 34 µM; in test [5], 47100 nM; in [6] it was 23.5 µM. Besides, the figures for the IC50 in test [7], in test [8] and in test [9] were at least 100 µM, 17 µM and 17.8 µM, respectively.
For the compound `N#Cc1ccccc1N1CCN(c2nc(OCC34CCCN3CCC4)nc3c(F)c(-c4cccc5cccc(F)c45)ncc23)CC1` [Example 216, 2-(4-(8-fluoro-7-(8-fluoronaphthalen-1-yl)-2-((tetrahydro-1H-pyrrolizin-7a(5H)-yl)methoxy)pyrido[4,3-d]pyrimidin-4-yl)piperazin-1-yl)benzonitrile], the IC50 was 13.8 µM in test [1]; 83200 nM in test [2]; 2.57 µM in test [3]; 30.9 µM in test [4]; 59000 nM in [5]; 41 µM in [6]. Moreover, the IC50 in test [7] is at least 100 µM; in test [8], 17.9 µM; in [9] it was 6.3 µM.
In the case of `O=C1NCC2(CCN(c3nc(OCC45CCCN4CCC5)nc4c(F)c(-c5cccc6cccc(F)c56)ncc34)CC2)N1` [Example 217, 8-(8-fluoro-7-(8-fluoronaphthalen-1-yl)-2-((tetrahydro-1H-pyrrolizin-7a(5H)-yl)methoxy)pyrido[4,3-d]pyrimidin-4-yl)-1,3,8-triazaspiro[4.5]decan-2-one], the IC50 was 8.99 µM in [1]; 19500 nM in [2]; 7.57 µM in test [3]; 14 µM in test [4]; 11600 nM in test [5]; 11.3 µM in test [6]. Moreover, the IC50 was 64.4 µM in [7], 5.16 µM in test [8] and 9.88 µM in [9].
Regarding `Fc1c(-c2cccc3cccc(F)c23)ncc2c(Nc3ccc4cn[nH]c4c3)nc(OCC34CCCN3CCC4)nc12` [Example 218, 8-fluoro-7-(8-fluoronaphthalen-1-yl)-N-(1H-indazol-6-yl)-2-((tetrahydro-1H-pyrrolizin-7a(5H)-yl)methoxy)pyrido[4,3-d]pyrimidin-4-amine], the IC50 in [1] was 14.8 µM; in test [2], 84800 nM; in test [3] it was 6.53 µM; in test [4], 28.9 µM; in test [5], at least 100000 nM; in [6], 23.2 µM. Further, the values for the 50% inhibitory concentration (IC50) in [7], in test [8] and in [9] were 65.9 µM, 2.84 µM and 6.88 µM, respectively.
With `Fc1c(-c2cccc3cccc(F)c23)ncc2c(NCCc3cnoc3)nc(OCC34CCCN3CCC4)nc12` [Example 219, 8-fluoro-7-(8-fluoronaphthalen-1-yl)-N-(2-(isoxazol-4-yl)ethyl)-2-((tetrahydro-1H-pyrrolizin-7a(5H)-yl)methoxy)pyrido[4,3-d]pyrimidin-4-amine], the IC50 was 16.2 µM in [1]; 20200 nM in [2]; 4.78 µM in [3]; 15 µM in test [4]; 18100 nM in test [5]; 13.1 µM in test [6]. The IC50 in test [7] was found to be 65.3 µM; in test [8], 8.83 µM; in [9], 5.65 µM.
For `Fc1c(-c2cccc3cccc(F)c23)ncc2c(N3CCCC4(COC4)C3)nc(OCC34CCCN3CCC4)nc12` [Example 220, 6-(8-fluoro-7-(8-fluoronaphthalen-1-yl)-2-((tetrahydro-1H-pyrrolizin-7a(5H)-yl)methoxy)pyrido[4,3-d]pyrimidin-4-yl)-2-oxa-6-azaspiro[3.5]nonane], the IC50 in test [1] came to 6.75 µM; in test [2], 7470 nM; in [3], 8.67 µM; in test [4], 5.57 µM; in [5] it was 6700 nM; in test [6], 6.31 µM. Besides, the IC50 in test [7] was found to be 10.8 µM; in test [8] it was 6.07 µM; in [9] it was 8.25 µM.

Source of the values: patent US12398154B2, “Azaquinazoline pan-KRas inhibitors” (Mirati Therapeutics, Inc., priority 2020, dated 2025).
